Earlier results in paper PMC8511391, “Optimization of Pichia pastoris Expression System for High-Level Production of Margatoxin” (Frontiers in Pharmacology, 2021).

Assays:
Kv1.1 = details: abstract, ref not given; cited from earlier work
Description: Margatoxin (MgTx) is a high-affinity blocker of voltage-gated potassium (Kv) channels. […] This toxin is widely used to study physiological function of Kv ion channels in various cell types, including immune cells. Isolation of native MgTx in large quantities from scorpion venom is not affordable. Chemical synthesis and recombinant production in Escherichia coli need in vitro oxidative refolding for proper disulfide bond formation, resulting in a very low yield of peptide production. The Pichia pastoris expression system offers an e ...

Kv1.2 = details: 2014, cited from earlier work
Protocol: Margatoxin (MgTx) is a 39-amino-acid peptide toxin isolated from the venom of the scorpion Centruroides margaritatus. Its 3D structure consists of an α-helix and three antiparallel β-strands stabilized by three disulfide bonds. […] Previous studies report the production of recombinant MgTx (rMgTx) in E. coli and P. ... || Pharmacological activity of both versions of rMgTx was evaluated by studying their effect on the hKv1.2 and hKv1.3 ion channels. The hKv1.2 current was recorded in CHO cells, which heterologously expressed the hKv1.2 ion channel, and hKv1.3 current was recorded in the human peripheral blood lymphocytes. The stimulation of the hKv1.3 channel expression (activation of isolated mononuclear cells by PHA, see the Materials and Methods section) and recording conditions (no Ca^2+ in the pipette to elicit Ca^2+-activated K^+ channels) guaranteed that the current recorded in these cells is K^+ current ... || The kinetics of current block by UrMgTx was consistent with previously reported data for MgTx. […] The association rate of TrMgTx, which has the N-terminal His-tag, was ∼1.6-fold lower than that of UrMgTx for both hKv1.2 and hKv1.3. The reduced k on rate could be explained by non–diffusion-limited bimolecular toxin–channe ...

Kv1.3 = details: 2014, cited from earlier work
Protocol: Voltage-gated potassium (Kv) channels are present in a variety of cells and tissues where they regulate multiple physiological processes, including cardiac function, neural excitability, muscle contraction, cell proliferation, cell volume control, and hormonal secretion ([Coetzee et al., 1999]; [Giangiacomo et al., 2004]). […] Previous studies report the production of recombinant MgTx (rMgTx) in E. coli and P. ... || Pharmacological activity of both versions of rMgTx was evaluated by studying their effect on the hKv1.2 and hKv1.3 ion channels. The hKv1.2 current was recorded in CHO cells, which heterologously expressed the hKv1.2 ion channel, and hKv1.3 current was recorded in the human peripheral blood lymphocytes. The stimulation of the hKv1.3 channel expression (activation of isolated mononuclear cells by PHA, see the Materials and Methods section) and recording conditions (no Ca^2+ in the pipette to elicit Ca^2+-activated K^+ channels) guaranteed that the current recorded in these cells is K^+ current ... || (+ 2 further places)

[1] = ref Garcia-Calvo et al., 1993, Bartok et al.

Substance: MgTx (TIINVKCTSPKQCLPPCKAQFGQSAGAKCMNGKCKCYPH; UniProt P40755 1-39, looked up)
- inhibition of Kv1.1 (Kv1.1): in picomolar concentrations
- kinetics and reversibility of block, hKv1.2 (Kv1.2; hKv1.2, whole-cell patch-clamp, ref Bartok et al.): develops relatively slowly and reversibility of the block is limited
- inhibition of Kv1.2 (Kv1.2; [1]): high potency in picomolar concentrations
- kinetics and reversibility of block, hKv1.3 (Kv1.3; hKv1.3, whole-cell patch-clamp, ref Bartok et al.): equilibrium block develops rapidly and is fully recoverable upon washout
- inhibition of Kv1.3 (Kv1.3; [1]): high potency in picomolar concentrations
